From paper PMC6433232, “Targeting mitochondria in cancer therapy could provide a basis for the selective anti-cancer activity” (PLoS ONE, 2019)
Where two headings read alike, the source gives them in different places.

How the values were obtained:
[1] = test system: human primary hepatocytes; details: for EC50: read-out: EC50, μM Hepatocytes ATO, in the presence of ATO (5 μM), SD does not exceed 10%
Source text: (§4) We selected hepatocytes as normal cells because hepatocytes are mediate toxicity to multiple drugs and are used as a standard to assess toxicity of drugs in vitro [28]. […] For comparison with the standard of care, doxorubicin was also included in this analysis.

[2] = test system: human primary hepatocytes; assay: cells; details: Hepatocyte
Source text: as §4

[3] = test system: pancreatic cancer MIA PaCa-2 cells; assay: cells; details: for EC50 / CC50: Homo sapiens; for EC50: MIA PaCa-2, read-out: EC50, μM MIA PaCa-2; for CC50: MIA PaCa-2, read-out: LC50 MIA PaCa-2
Experimental: Fig 1 A, Structure of NSC130362. B, Dose response curve of NSC130362 in MIA PaCa-2 cells. Cells were pre-incubated with NSC130362 for 2 h followed by addition of ATO (5 μM) and incubation for an additional 24 h. At the end of the treatment, the ratio of dead cells was determined by a CellTiterGlo reagent.

[4] = test system: MIA PaCa-2 cells; assay: Hydrogen peroxide cell-based assay (ROS induction), MIA PaCa-2 cells; details: Homo sapiens, hydrogen peroxide level relative to DMSO-treated cells (100%), read-out: ROS increase, % MIA PaCa-2
Experimental: (§1) Cells were incubated for 2 h with either compounds (30 μM) or DMSO in a 96-well plate. After the treatment, 80 μl of cell culture medium was collected and the level of hydrogen peroxide was determined using a Hydrogen Peroxide Cell-Based Assay kit (Cayman).
(§2) Cells were incubated with the compounds for 4 h and the level of ROS induction was measured by a hydrogen peroxide cell-based assay kit. Compounds were assayed at a fixed concentration of 30 μM and the measured level of hydrogen peroxide was expressed as percentage in relation to DMSO-treated cells (100%). […] This distinction was more evident for compounds with the highest selective cytotoxicity index. […] We conclude that the selective induction of ROS in cancer cells is required but not sufficient factor for the selective anti-tumor activity.

[5] = biological target: T1, human GAPDH enzyme (Homo sapiens, UniProt P04406); assay: GAPDH activity assay in MIA PaCa-2 cells; format: cell-based; details: 2 h; for remaining activity at 30 µM: read-out: GAPDH, enzyme residual activity as compared to DMSO-treated sample; for inhibition of GAPDH: 30 μM
T1 construct: endogenous in cells; host or cells: MIA PaCa-2 cells
Experimental: Cells were incubated for 2 h with either compounds (30 μM) or DMSO in a 6-well plate. Next, cells were collected in 200 μl of PBS and disrupted by sonication. Insoluble material was removed by centrifugation. The level of GAPDH activity was determined by GAPDH activity assay kit (BioVision).
As a final step, we evaluated the inhibitory activity of the selected compounds against human GAPDH enzyme in a cell-based assay using MIA PaCa-2 cells (Table 1). Cells were pre-incubated with compounds for 2 h at 37°C followed by cell lysis using sonication and GAPDH activity assay. The ability of compounds to inhibit GAPDH was expressed as percentage of GAPDH residual activity with respect to DMSO-treated cells. […] Similar to the GSR activity assay, only two of the most toxic compounds 31 and 32, were able to inhibit GAPDH by 95 and 97%, respectively.

[6] = test system: hepatocytes; assay: Hydrogen peroxide cell-based assay (ROS induction), hepatocytes; design: species or system Human; details: 30 μM; hydrogen peroxide level relative to DMSO-treated cells (100%)
Experimental: as §1, §2

[7] = in words; cited from earlier work
[8] = in words; cited from earlier work; remark: listed apart in the source
[9] = test system: chemotherapy resistant prostate carcinoma cells; assay: Combined treatment with ATO, docetaxel, MDV3100, prostate cancer cells; format: cell-based; details: NSC130362 10 μM 2 h
Experimental: Fig 3 Combined treatment of NSC130362 with ATO, docetaxel, and MDV3100 against prostate cancer cells. Cells were pre-incubated with NSC130362 (10 μM) for 2 h followed by addition of drugs (10 μM) and incubation for an additional 24 h. […] The first bar in the treatment of each cell line is NSC130362 alone. *, P<0.05.

[10] = test system: PANC1 pancreatic carcinoma cells; assay: Combined treatment with pancreatic cancer drugs, PANC1 cells; format: cell-based, Human; details: NSC130362 10 μM 2 h, then drugs 10 μM 24 h
Experimental: (§3) Fig 2 Combined treatment of NSC130362 with pancreatic cancer drugs against PANC1 and YAPC cells. Cells were pre-incubated with NSC130362 (10 μM) for 2 h followed by addition of drugs (10 μM) and incubation for an additional 24 h. […] The first bar is NSC130362 alone. *, P<0.05.

[11] = test system: YAPC pancreatic carcinoma cells; assay: Combined treatment with pancreatic cancer drugs, YAPC cells; format: cell-based, Human; details: NSC130362 10 μM 2 h, then drugs 10 μM 24 h
Experimental: as §3

T1 sequence (P04406 whole entry): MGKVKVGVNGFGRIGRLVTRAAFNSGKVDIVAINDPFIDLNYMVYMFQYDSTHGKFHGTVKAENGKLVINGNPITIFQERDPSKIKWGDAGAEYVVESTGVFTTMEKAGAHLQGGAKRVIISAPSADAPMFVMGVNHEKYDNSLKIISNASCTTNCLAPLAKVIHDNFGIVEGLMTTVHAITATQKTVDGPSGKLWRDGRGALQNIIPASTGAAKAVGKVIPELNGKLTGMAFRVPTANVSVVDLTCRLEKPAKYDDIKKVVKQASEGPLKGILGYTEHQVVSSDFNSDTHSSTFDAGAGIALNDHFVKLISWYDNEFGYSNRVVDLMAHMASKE

SMILES | EC50 ([2]; read-out: EC50, μM Hepatocytes) | EC50 [3] | CC50 [3] | activity at 30 µM [4] | remaining activity at 30 µM [5] | ROS increase, % Hepatocytes [6] | further results
CC1CN1C1=C(Cl)C(=O)c2ccccc2C1=O (centres unmarked) [compound 16] | 78 µM | 6.9 µM | 6.9 µM | 637% | 100% | – | toxicity against normal cells ([1]; hepatocytes, in words): completely non-toxic against normal cells
CC1=C(N2CC2)C(=O)c2ccccc2C1=O [compound 55] | > 90 µM | 3.1 µM | 3.1 µM | 416% | 100% | – | reduction in toxicity to hepatocytes ([1]; versus compound 15): more than 10 fold; increase in anti-cancer activity ([3]; versus compound 15): 2 fold
O=C1C(Nc2ccccc2)=CC(=O)c2ncccc21 [compound 67, reference compound] | 17.8 µM | 1 µM | 1 µM | 783% | 76% | 179% | EC50 [1]: 19.4 µM; decrease in toxicity to hepatocytes ([1]; versus compound 64): 3 fold; increase in anti-cancer activity ([3]; versus compound 64): approximately 10 fold
CCCC(=O)NC1=C(Cl)C(=O)c2ccccc2C1=O [compound 31] | 1.6 µM | 10.4 µM | 10.4 µM | 251% | 5% | 228% | inhibition of GAPDH [5]: almost completely inhibited GAPDH; inhibition at 30 µM [5]: 95%
CCCCCCCNC1=C(Cl)C(=O)c2ccccc2C1=O [compound 8] | 78.6 µM | > 90 µM | > 90 µM | 110% | 100% | 115% | –
O=C1C(Cl)=C(Nc2ccccc2)C(=O)c2ccccc21 [compound 39] | 2.3 µM | 3.9 µM | 3.9 µM | – | 93% | 174% | reduced anti-cancer activity ([3]; versus compound 1): 8 fold
CCCCC(=O)NC1=C(Cl)C(=O)c2ccccc2C1=O [compound 32] | 2.2 µM | 10.2 µM | 10.2 µM | 506% | 3% | 249% | inhibition of GAPDH [5]: almost completely inhibited GAPDH; inhibition at 30 µM [5]: 97%
O=C1C=C(SCCO)C(=O)c2ccccc21 [compound 60] | 3.3 µM | 6.2 µM | 6.2 µM | – | 88% | 386% | EC50 [1]: 1.7 µM
O=C1C(Cl)=C(NCCO)C(=O)c2ccccc21 [compound 17] | 83 µM | 9.8 µM | 9.8 µM | 295% | 89% | 132% | dose-response in MIA PaCa-2 cells ([3]; in the presence of ATO (5 μM), 24 h): induced a dose-response over a hundred-fold concentration range; half-life in the mouse bloodstream [7]: short half-life; anti-tumor activity in vivo [8]: demonstrated anti-tumor activity in vivo; potentiation of docetaxel-induced cytotoxicity ([9]; then docetaxel 10 μM 24 h): potentiated docetaxel-induced cytotoxicity, but to a lesser extent; potentiation of ATO or MDV3100 effect on cell viability ([9]; then drugs 10 μM 24 h): efficiently potentiated the effect on cell viability of either ATO or MDV3100; effect on apoptosis induction by pancreatic cancer drugs, PANC1 [10]: significantly increased the ability of all tested pancreatic cancer drugs; effect on apoptosis induction by pancreatic cancer drugs, YAPC [11]: significantly increased the ability of all tested pancreatic cancer drugs
CCCCOCCCNC1=C(Cl)C(=O)c2ccccc2C1=O [compound 26] | 4.8 µM | 26.6 µM | 26.6 µM | 889% | 94% | 191% | EC50 ([2]; read-out: EC50, toxicity to hepatocytes): 3.6 µM
O=C1C(Cl)=C(NCCc2ccccc2)C(=O)c2ccccc21 [compound 36] | 8.8 µM | 16.2 µM | 16.2 µM | 721% | 97% | 178% | –
O=C1C(Cl)=C(Nc2nccs2)C(=O)c2ccccc21 [compound 38] | 26 µM | > 90 µM | – | 100% | 100% | 100% | –
NC1=C(Cl)C(=O)c2ccccc2C1=O [compound 1, 2-chloro-3-amino-1,4-NQ] | 17 µM | 8.4 µM | 8.4 µM | 331% | 100% | 156% | –
CCNC1=CC(=O)c2ncccc2C1=O [compound 66] | > 90 µM | 4.5 µM | 4.5 µM | 626% | 93% | 173% | EC50 [1]: > 90 µM; improved anti-cancer activity ([3]; versus compound 49): more than 30 fold
Cc1ccccc1NC1=C(Cl)C(=O)c2ccccc2C1=O [compound 40] | 24.5 µM | 78.5 µM | 78.5 µM | 111% | 88% | 122% | –
COCCNC1=C(Cl)C(=O)c2ccccc2C1=O [compound 21] | 60.4 µM | 13.8 µM | 13.8 µM | 254% | 100% | 154% | increase in toxicity to hepatocytes ([1]; versus compound 3): approximately 3 fold
CC(C)(C)NC1=C(Cl)C(=O)c2ccccc2C1=O [compound 13] | 29.9 µM | 7.2 µM | 7.2 µM | 248% | 100% | 123% | –
COC1=C(N2CC2)C(=O)c2ccccc2C1=O [compound 54] | > 90 µM | 7.5 µM | 7.5 µM | 675% | 73% | – | –
COC1=C(N(C)C)C(=O)c2ccccc2C1=O [compound 53] | > 90 µM | 23.4 µM | 23.4 µM | 446% | 95% | 117% | –
CCNC1=C(Cl)C(=O)c2ccccc2C1=O [compound 3] | 81.9 µM | 59 µM | 59 µM | 182% | 100% | 115% | –
